Test results reported in PubChem BioAssay (NCI).
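Step 1: Grow cells in 96-well plates. Step 2: Expose to compound for 48 hours at 5 concentrations. Step 3: Interpolate endpoints linearly; if unreached, use highest concentration. Definition used: TGI = concentration required for complete inhibition of growth.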

Legend:
Test in all cases: inhibition of tumour cell growth, NCI panel, 48 h
HOP-92 NSCLC = test system: HOP-92 NSCLC
SR leukemia = test system: SR leukemia
UACC-257 melanoma = test system: UACC-257 melanoma
RXF 393 renal = test system: RXF 393 renal
A549 NSCLC = test system: A549 NSCLC
U251 CNS = test system: U251 CNS
HT29 colon = test system: HT29 colon
DU-145 prostate = test system: DU-145 prostate
BT-549 breast = test system: BT-549 breast
SF-268 CNS = test system: SF-268 CNS
SNB-75 CNS = test system: SNB-75 CNS
SK-MEL-5 melanoma = test system: SK-MEL-5 melanoma
OVCAR-8 ovarian = test system: OVCAR-8 ovarian
OVCAR-4 ovarian = test system: OVCAR-4 ovarian
RPMI-8226 leukemia = test system: RPMI-8226 leukemia
786-0 renal = test system: 786-0 renal

Structure (SMILES)	TGI (HOP-92 NSCLC)	TGI (SR leukemia)	TGI (UACC-257 melanoma)	TGI (RXF 393 renal)	TGI (A549 NSCLC)	TGI (U251 CNS)	TGI (HT29 colon)	TGI (DU-145 prostate)	TGI (BT-549 breast)	TGI (SF-268 CNS)	TGI (SNB-75 CNS)	TGI (SK-MEL-5 melanoma)	TGI (OVCAR-8 ovarian)	TGI (OVCAR-4 ovarian)	TGI (RPMI-8226 leukemia)	TGI (786-0 renal)
CC1=C2c3ccccc3N(S(=O)(=O)c3ccccc3)[C@H]2[C@H](C(=O)N2C3CC4CC[C@@]3(CS2(=O)=O)C4(C)C)CC1 (stereo partly drawn)	> 100 µM	> 100 µM	> 100 µM	14.7 µM	> 100 µM	> 100 µM	> 100 µM	> 100 µM	81.7 µM	> 100 µM	19.6 µM	91.3 µM	> 100 µM	> 100 µM	7.05 µM	> 100 µM
CCN(CC)CCNc1ccc2ncn3c4c(OC)ccc(=O)c4c(O)c1c23	> 62.1 µM	> 31.6 µM	> 100 µM	34.1 µM	> 100 µM	> 100 µM	> 57.8 µM	> 100 µM	> 100 µM	> 95.2 µM	> 100 µM	> 39.6 µM	> 100 µM	> 100 µM	17.8 µM	> 100 µM
CC(=O)O[C@H]1CC[C@@]2(C)C(=CC[C@H]3[C@@H]4C/C(=C\c5ccncc5)[C@H](OC(C)=O)[C@@]4(C)CC[C@@H]32)C1	19.7 µM	9.19 µM	33.3 µM	9.86 µM	29.8 µM	23.1 µM	20.3 µM	29.4 µM	10.9 µM	25.8 µM	23.8 µM	18.9 µM	34.5 µM	18.2 µM	7.6 µM	23.3 µM
O=C(Nn1c(-c2ccccc2)nc2ccccc2c1=O)c1ccc(O)cc1	> 100 µM	> 100 µM	> 100 µM	> 100 µM	> 100 µM	> 100 µM	> 100 µM	> 100 µM	> 100 µM	> 100 µM	> 100 µM	> 100 µM	> 100 µM	> 100 µM	> 100 µM	> 100 µM
Nc1nc(NCC2(CO)CC(CCc3ccccc3)C2)cc(=O)[nH]1 (stereo not drawn)	> 100 µM	> 100 µM	> 100 µM	> 100 µM	> 100 µM	> 100 µM	> 100 µM	> 100 µM	> 100 µM	> 100 µM	> 100 µM	> 100 µM	> 100 µM	> 100 µM	> 100 µM	> 100 µM
O=[N+]([O-])c1cc(C(F)(F)F)ccc1S(=O)(=O)N[C@@H]1CCCC[C@H]1NS(=O)(=O)c1ccc(C(F)(F)F)cc1[N+](=O)[O-]	8.31 µM	> 26.2 µM	> 100 µM	> 28.1 µM	> 31.3 µM	17.1 µM	22.7 µM	> 75.7 µM	8.16 µM	7.24 µM	7.46 µM	8.15 µM	20.2 µM	29.2 µM	> 22.3 µM	> 42.2 µM
Cc1n(-c2ccccc2)c2c([n+]1Cc1ccc([N+](=O)[O-])cc1)C(=O)c1ccccc1C2=O	4.3 µM	4.9 µM	3.16 µM	21.5 µM	10.7 µM	3.35 µM	6.43 µM	3.28 µM	3.18 µM	3.71 µM	13.1 µM	3.29 µM	6.43 µM	3.2 µM	3.82 µM	14.7 µM
CCCCCCCCCCCCCCCCNc1ccc2c(c1)OCCOCCOCCOCCO2	5.99 µM	8.14 µM	6.91 µM	5.58 µM	14.5 µM	10.4 µM	10.9 µM	15.3 µM	11.6 µM	11.9 µM	11.9 µM	5.22 µM	10.8 µM	17.6 µM	4.49 µM	13.8 µM
